Measured values: the supplement of paper PMC10307832

Assays:
Test in all cases: relative viability (nuclei count vs DMSO), 5 days (fraction); higher = more cells survive
[1] = compound: C1/C(=C\C2=CC=CS2)/C(=O)/C(=C/C3=CC=CS3)/C1 + Cc1nc(Nc2ncc(C(=O)Nc3c(C)cccc3Cl)s2)cc(N2CCN(CCO)CC2)n1 [Dasatinib] (partner 0.075 µM)
Summary of the method: (§1)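 A single step with final 0.05% Triton X-100, 1% formaldehyde and 1 ug/ml Hoechst fixed the cells and stained nuclei 5 days after treatment. Lung cancer cell lines in 1536-well plates had been treated by pin tool the day after seeding with one drug alone or a fixed anchor-drug dose plus five library-drug doses (not always all listed) in √10 steps, and nuclei were counted on 4× images. Relative viability is the ratio of nuclei in treated wells to nuclei in vehicle wells, taken as the median of duplicate plates.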

[2] = compound: C1=CC(=CC=C1C2=CC(=C(S2)NC(=O)N)C(=O)N)F [TPCA-1] + CS(=O)(=O)N1CCN(Cc2cc3nc(-c4cccc5[nH]ncc45)nc(N4CCOCC4)c3s2)CC1 [Pictilisib] (partner 1 µM)
Summary of the method: as §1

[3] = compound: C[C@]12O[C@H](C[C@]1(O)CO)n1c3ccccc3c3c4c(c5c6ccccc6n2c5c31)CNC4=O [Lestaurtinib] + CS(=O)(=O)CCNCc1ccc(-c2ccc3ncnc(Nc4ccc(OCc5cccc(F)c5)c(Cl)c4)c3c2)o1 [Lapatinib] (partner 2 µM)
Summary of the method: as §1

[4] = compound: C[C@]12O[C@H](C[C@]1(O)CO)n1c3ccccc3c3c4c(c5c6ccccc6n2c5c31)CNC4=O [Lestaurtinib] + CCNC(=O)c1noc(-c2cc(C(C)C)c(O)cc2O)c1-c1ccc(CN2CCOCC2)cc1 [Luminespib] (partner 0.01 µM)
Summary of the method: as §1

Row | Cell Line | relative viability ([1]; first compound 0.2 µM) | relative viability ([1]; first compound 0.6325 µM) | relative viability ([1]; first compound 2 µM) | relative viability ([1]; first compound 6.325 µM) | relative viability ([1]; first compound 20 µM) | relative viability ([2]; first compound 0.04 µM) | relative viability ([2]; first compound 0.1265 µM) | relative viability ([2]; first compound 0.4 µM) | relative viability ([2]; first compound 1.265 µM) | relative viability ([2]; first compound 4 µM) | relative viability ([3]; first compound 0.005 µM) | relative viability ([3]; first compound 0.01581 µM) | relative viability ([3]; first compound 0.05 µM) | relative viability ([3]; first compound 0.1581 µM) | relative viability ([3]; first compound 0.5 µM) | relative viability ([4]; first compound 0.005 µM) | relative viability ([4]; first compound 0.01581 µM) | relative viability ([4]; first compound 0.05 µM) | relative viability ([4]; first compound 0.1581 µM) | relative viability ([4]; first compound 0.5 µM)
1 | SK-LU-1 | 0.182 | 0.203 | 0.189 | 0.164 | 0.224 | 0.797 | 0.465 | 0.44 | 0.436 | 0.317 | 0.732 | 0.805 | 0.473 | 0.402 | 0.2 | 0.206 | 0.22 | 0.177 | 0.203 | 0.215
2 | NCI-H2085 | 0.233 | 0.258 | 0.221 | 0.237 | 0.236 | 0.504 | 0.385 | 0.52 | 0.331 | 0.418 | 0.812 | 0.89 | 0.871 | 0.667 | 0.433 | 0.436 | 0.449 | 0.57 | 0.41 | 0.337
3 | NCI-H460 | 0.562 | 0.526 | 0.6 | 0.461 | 0.484 | 0.421 | 0.246 | 0.332 | 0.339 | 0.216 | 0.869 | 1.33 | 0.23 | 0.415 | 0.0473 | 0.0333 | 0.0274 | 0.0352 | 0.0238 | 0.0199
4 | Calu-6 |  |  |  |  |  | 0.954 | 0.841 | 0.946 | 0.785 | 0.469 | 1.09 | 1.2 | 0.557 | 0.499 | 0.208 |  |  |  |  | 
5 | RERF-LC-KJ | 0.858 | 0.798 | 0.776 | 0.682 | 0.656 | 0.533 | 0.493 | 0.561 | 0.44 | 0.466 | 0.868 | 0.839 | 0.731 | 0.758 | 0.704 | 1.1 | 1.55 | 0.828 | 0.959 | 0.417
6 | LCLC-103H | 0.402 | 0.466 | 0.572 | 0.481 | 0.444 | 0.659 | 0.593 | 0.553 | 0.587 | 0.656 |  |  |  |  |  | 1.04 | 1.08 | 0.767 | 0.501 | 0.34
7 | HCC-15 | 0.692 | 0.61 | 0.65 | 0.489 | 0.586 | 0.901 | 0.559 | 0.766 | 0.864 | 0.275 | 0.931 | 1.05 | 0.8 | 0.545 | 0.135 | 0.365 | 0.552 | 0.341 | 0.294 | 0.157
8 | H3255 | 0.298 | 0.366 | 0.568 | 0.321 | 0.289 | 0.461 | 0.404 | 0.509 | 0.399 | 0.333 | 0.2 | 0.175 | 0.243 | 0.18 | 0.112 | 0.766 | 0.94 | 0.835 | 0.716 | 0.486
9 | NCI-H1792 | 0.774 | 0.613 | 0.968 | 0.758 | 0.752 | 0.343 | 0.318 | 0.252 | 0.264 | 0.177 | 0.779 | 1.05 | 0.56 | 0.653 | 0.244 |  | 0.618 | 0.332 | 0.464 | 0.158
10 | NCI-H1563 | 0.452 | 0.462 | 0.504 | 0.453 | 0.465 | 0.671 | 0.633 | 0.63 | 0.661 | 0.611 | 1.1 | 0.947 | 1.06 | 1.05 | 0.776 | 0.554 | 0.495 | 0.546 | 0.5 | 0.48
11 | NCI-H596 | 0.577 | 0.677 | 0.598 | 0.628 | 0.586 | 0.402 | 0.353 | 0.196 | 0.388 | 0.387 | 1.22 | 1.03 | 0.973 | 1.26 | 0.843 | 0.959 | 1.12 | 1.03 | 1.27 | 0.953
12 | NCI-H522 | 0.901 | 0.854 | 1.01 | 0.834 | 0.919 |  |  |  |  |  |  |  |  |  |  | 1.3 | 1.01 | 1.08 | 1.03 | 0.699
13 | HCC-44 |  |  |  |  |  | 0.684 | 0.571 | 0.619 | 0.792 | 0.508 | 0.985 | 1.14 | 0.851 | 1.14 | 0.479 | 1.14 | 1.22 | 0.623 | 0.873 | 0.308
14 | NCI-H441 | 0.798 | 0.739 | 0.573 | 0.522 | 0.412 | 0.565 | 0.377 | 0.4 | 0.216 | 0.195 |  |  |  |  |  | 0.375 | 0.277 | 0.329 | 0.399 | 0.409
15 | NCI-H1299 |  |  |  |  |  | 0.854 | 0.669 | 0.828 | 0.614 | 0.243 | 0.972 | 1.01 | 0.893 | 0.862 | 0.479 |  |  |  |  | 
16 | HCC-78 | 0.332 | 0.461 | 0.537 | 0.413 | 0.291 | 0.242 | 0.194 | 0.21 | 0.203 | 0.103 | 0.507 | 1.03 | 0.54 | 0.272 | 0.289 |  |  |  |  | 
17 | ChaGo-K-1 | 0.546 | 0.669 | 0.592 | 0.51 | 0.286 | 0.624 | 0.704 | 0.805 | 0.748 | 0.334 |  |  |  |  |  | 0.62 | 0.706 | 0.698 | 0.479 | 0.223
18 | EBC-1 |  |  |  |  |  | 0.462 | 0.421 | 0.466 | 0.474 | 0.362 | 0.164 | 0.236 | 0.251 | 0.234 | 0.185 |  |  |  |  | 
19 | IA-LM |  |  |  |  |  | 0.319 | 0.339 | 0.417 | 0.376 | 0.404 | 1 | 1.06 | 0.91 | 0.905 | 0.396 |  |  |  |  | 
20 | NCI-H1703 |  |  |  |  |  | 0.263 | 0.284 | 0.259 |  | 0.213 | 1.07 | 1.09 | 0.597 | 0.278 | 0.123 |  |  |  |  | 
